Reference: PubChem BioAssay AID1963962 (Molecular Pharmacology Branch, DTP, NCI, 2024)

Test system: 967376-340-R-J2-PDC multicell spheroid viability
Assay: Anticancer human tumor 967376-340-R-J2-PDC patient-derived colon adenocarcinoma cell line growth inhibition [PI3K]
Conditions: for IC50: curve of first compound; for viability, T/C: stronger effect = lower value
Outline: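 We assembled tumor spheroids that included a stromal compartment of HUVEC and MSCs, then exposed them to targeted agents alone and together with PI3K pathway inhibitors. Concentration series descended by half-log from clinically achievable Cmax levels. Viability served as the endpoint.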

[1] = second compound 0.00316 µM, first compound 0.0316 µM
[2] = second compound 0.00316 µM, first compound 0.1 µM
[3] = second compound 0.00316 µM, first compound 0.316 µM
[4] = second compound 0.00316 µM, first compound 1 µM
[5] = second compound 0.00316 µM, first compound 3.16 µM
[6] = second compound 0.00316 µM, first compound 10 µM
[7] = second compound 0.01 µM, first compound 0.0316 µM
[8] = second compound 0.01 µM, first compound 0.1 µM
[9] = second compound 0.01 µM, first compound 0.316 µM
[10] = second compound 0.01 µM, first compound 1 µM
[11] = second compound 0.01 µM, first compound 3.16 µM
[12] = second compound 0.01 µM, first compound 10 µM
[13] = second compound 0.0316 µM, first compound 0.0316 µM
[14] = second compound 0.0316 µM, first compound 0.1 µM
[15] = second compound 0.0316 µM, first compound 0.316 µM
[16] = second compound 0.0316 µM, first compound 1 µM
[17] = second compound 0.0316 µM, first compound 3.16 µM
[18] = second compound 0.0316 µM, first compound 10 µM
[19] = second compound 0.1 µM, first compound 0.0316 µM
[20] = second compound 0.1 µM, first compound 0.1 µM
[21] = second compound 0.1 µM, first compound 0.316 µM
[22] = second compound 0.1 µM, first compound 1 µM
[23] = second compound 0.1 µM, first compound 3.16 µM
[24] = second compound 0.1 µM, first compound 10 µM
[25] = second compound 0.316 µM, first compound 0.0316 µM
[26] = second compound 0.316 µM, first compound 0.1 µM
[27] = second compound 0.316 µM, first compound 0.316 µM
[28] = second compound 0.316 µM, first compound 1 µM
[29] = second compound 0.316 µM, first compound 3.16 µM
[30] = second compound 0.316 µM, first compound 10 µM
[31] = second compound 1 µM, first compound 0.0316 µM
[32] = second compound 1 µM, first compound 0.1 µM
[33] = second compound 1 µM, first compound 0.316 µM
[34] = second compound 1 µM, first compound 1 µM
[35] = second compound 1 µM, first compound 3.16 µM
[36] = second compound 1 µM, first compound 10 µM
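Note: spheroids exposed to agents for 7 days before read-out.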
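Throughout, for viability, T/C: luminescence used as surrogate of cell viability.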

C#Cc1c(F)ccc2cc(O)cc(-c3ncc4c(N5CC6CCC(C5)N6)nc(OCC56CCCN5CC(F)C6)nc4c3F)c12 (stereo not drawn) + CC(Nc1ccc2c(c1)OCCn1cc(N3C(=O)OCC3C(F)F)nc1-2)C(N)=O
IC50 (second compound 0.00316 µM): > 10 µM | IC50 (second compound 0.01 µM): > 10 µM | IC50 (second compound 0.0316 µM): > 10 µM | IC50 (second compound 0.1 µM): > 10 µM | IC50 (second compound 0.316 µM): > 10 µM | IC50 (second compound 1 µM): 2.26 µM | viability, T/C [1]: 115% | viability, T/C [2]: 99.1% | viability, T/C [3]: 72.3% | viability, T/C [4]: 68.5% | viability, T/C [5]: 94.5% | viability, T/C [6]: 65.7% | viability, T/C [7]: 81.8% | viability, T/C [8]: 86% | viability, T/C [9]: 78.7% | viability, T/C [10]: 87.5% | viability, T/C [11]: 97.7% | viability, T/C [12]: 59.6% | viability, T/C [13]: 78.5% | viability, T/C [14]: 105% | viability, T/C [15]: 71.6% | viability, T/C [16]: 62.3% | viability, T/C [17]: 98.7% | viability, T/C [18]: 56.6% | viability, T/C [19]: 79.7% | viability, T/C [20]: 82% | viability, T/C [21]: 86.6% | viability, T/C [22]: 70.7% | viability, T/C [23]: 62% | viability, T/C [24]: 58.6% | viability, T/C [25]: 55.1% | viability, T/C [26]: 73.9% | viability, T/C [27]: 63.8% | viability, T/C [28]: 60.7% | viability, T/C [29]: 67.6% | viability, T/C [30]: 45.5% | viability, T/C [31]: 62.7% | viability, T/C [32]: 58.6% | viability, T/C [33]: 57.4% | viability, T/C [34]: 56.3% | viability, T/C [35]: 47.8% | viability, T/C [36]: 32.9%

CC(Cn1ccc(-c2ccc(C#N)c(Cl)c2)n1)NC(=O)c1cc(C(C)O)[nH]n1 (stereo not drawn) + CC(Nc1ccc2c(c1)OCCn1cc(N3C(=O)OCC3C(F)F)nc1-2)C(N)=O
IC50 (second compound 0.00316 µM): > 10 µM | IC50 (second compound 0.01 µM): > 10 µM | IC50 (second compound 0.0316 µM): > 10 µM | IC50 (second compound 0.1 µM): > 10 µM | IC50 (second compound 0.316 µM): > 10 µM | IC50 (second compound 1 µM): > 10 µM | viability, T/C [1]: 109% | viability, T/C [2]: 112% | viability, T/C [3]: 126% | viability, T/C [4]: 93.5% | viability, T/C [5]: 125% | viability, T/C [6]: 105% | viability, T/C [7]: 115% | viability, T/C [8]: 78.3% | viability, T/C [9]: 126% | viability, T/C [10]: 101% | viability, T/C [11]: 102% | viability, T/C [12]: 117% | viability, T/C [13]: 82.6% | viability, T/C [14]: 104% | viability, T/C [15]: 101% | viability, T/C [16]: 97.1% | viability, T/C [17]: 93.7% | viability, T/C [18]: 84.8% | viability, T/C [19]: 84.5% | viability, T/C [20]: 74.1% | viability, T/C [21]: 75% | viability, T/C [22]: 83.9% | viability, T/C [23]: 85.2% | viability, T/C [24]: 67.4% | viability, T/C [25]: 75.7% | viability, T/C [26]: 72.3% | viability, T/C [27]: 76.4% | viability, T/C [28]: 62.4% | viability, T/C [29]: 69.4% | viability, T/C [30]: 78.2% | viability, T/C [31]: 59.8% | viability, T/C [32]: 54% | viability, T/C [33]: 66.7% | viability, T/C [34]: 51% | viability, T/C [35]: 61.2% | viability, T/C [36]: 60.2%

Cn1ncc(Cl)c1-c1cc(C(=O)NC(CN)Cc2cccc(F)c2)sc1Cl (stereo not drawn) + CC(Nc1ccc2c(c1)OCCn1cc(N3C(=O)OCC3C(F)F)nc1-2)C(N)=O
IC50 (second compound 0.00316 µM): > 10 µM | IC50 (second compound 0.01 µM): > 10 µM | IC50 (second compound 0.0316 µM): > 10 µM | IC50 (second compound 0.1 µM): > 10 µM | IC50 (second compound 0.316 µM): > 10 µM | IC50 (second compound 1 µM): 4.19 µM | viability, T/C [1]: 102% | viability, T/C [2]: 94.4% | viability, T/C [3]: 86.6% | viability, T/C [4]: 75% | viability, T/C [5]: 71% | viability, T/C [6]: 61.3% | viability, T/C [7]: 92.3% | viability, T/C [8]: 93.3% | viability, T/C [9]: 90.8% | viability, T/C [10]: 67.1% | viability, T/C [11]: 67.8% | viability, T/C [12]: 71.3% | viability, T/C [13]: 91.2% | viability, T/C [14]: 98% | viability, T/C [15]: 75.2% | viability, T/C [16]: 83.2% | viability, T/C [17]: 67.4% | viability, T/C [18]: 55.8% | viability, T/C [19]: 83.5% | viability, T/C [20]: 72.5% | viability, T/C [21]: 87.7% | viability, T/C [22]: 65% | viability, T/C [23]: 55.8% | viability, T/C [24]: 57.8% | viability, T/C [25]: 68% | viability, T/C [26]: 66.9% | viability, T/C [27]: 59.2% | viability, T/C [28]: 67.8% | viability, T/C [29]: 59.9% | viability, T/C [30]: 45.9% | viability, T/C [31]: 63.1% | viability, T/C [32]: 49.3% | viability, T/C [33]: 53.9% | viability, T/C [34]: 68.1% | viability, T/C [35]: 53.9% | viability, T/C [36]: 38.5%

Cn1nccc1Nc1nccc(-c2ccn(C(CO)c3ccc(Cl)c(F)c3)c(=O)c2)n1 (stereo not drawn) + CC(Nc1ccc2c(c1)OCCn1cc(N3C(=O)OCC3C(F)F)nc1-2)C(N)=O
IC50 (second compound 0.00316 µM): > 10 µM | IC50 (second compound 0.01 µM): > 10 µM | IC50 (second compound 0.0316 µM): > 10 µM | IC50 (second compound 0.1 µM): > 10 µM | IC50 (second compound 0.316 µM): > 10 µM | IC50 (second compound 1 µM): 0.0465 µM | viability, T/C [1]: 100% | viability, T/C [2]: 89.8% | viability, T/C [3]: 105% | viability, T/C [4]: 71.5% | viability, T/C [5]: 108% | viability, T/C [6]: 101% | viability, T/C [7]: 107% | viability, T/C [8]: 67.5% | viability, T/C [9]: 81% | viability, T/C [10]: 82.2% | viability, T/C [11]: 91.8% | viability, T/C [12]: 102% | viability, T/C [13]: 80.8% | viability, T/C [14]: 101% | viability, T/C [15]: 76.8% | viability, T/C [16]: 92% | viability, T/C [17]: 70.9% | viability, T/C [18]: 85.3% | viability, T/C [19]: 72.3% | viability, T/C [20]: 65.6% | viability, T/C [21]: 79.3% | viability, T/C [22]: 78.4% | viability, T/C [23]: 72.9% | viability, T/C [24]: 70.3% | viability, T/C [25]: 62.5% | viability, T/C [26]: 68% | viability, T/C [27]: 60.2% | viability, T/C [28]: 78% | viability, T/C [29]: 63.1% | viability, T/C [30]: 46.6% | viability, T/C [31]: 49.6% | viability, T/C [32]: 48.3% | viability, T/C [33]: 48.4% | viability, T/C [34]: 41.6% | viability, T/C [35]: 32.3% | viability, T/C [36]: 31.2%
